Measurements as given in PubChem BioAssay AID248 (DTP/NCI, 2004).
Inconclusive results and toxic doses are left out. No stated cut-off is given here; in the data, active means T/C of 150% or more; inactive means T/C below 125%.

Test system: L1210 leukemia ip in BDF1 mice, survival T/C
Assay: NCI In Vivo Anticancer Drug Screen. Data for tumor model L1210 Leukemia (intraperitoneal) in B6D2F1 (BDF1) mice
Conditions: endpoint: mean survival time, higher = longer survival
Method in brief: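 Each compound was tested against a transplantable tumor grown in mice. The endpoint was survival, with treated animals benchmarked against vehicle controls as a simple ratio.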

[1] = dose: 100.0 mg/kg/injection, schedule: Q01DX009 (ip), vehicle: Klucel (hydroxypropylcellulose) (HPC)
[2] = dose: 200.0 mg/kg/injection, schedule: Q01DX009 (ip), vehicle: Klucel (hydroxypropylcellulose) (HPC)
[3] = dose: 400.0 mg/kg/injection, schedule: Q01DX009 (ip), vehicle: Klucel (hydroxypropylcellulose) (HPC)
[4] = dose: 50.0 mg/kg/injection, schedule: Q01DX001 (ip), vehicle: saline
[5] = dose: 100.0 mg/kg/injection, schedule: Q01DX001 (ip), vehicle: saline
[6] = dose: 200.0 mg/kg/injection, schedule: Q01DX001 (ip), vehicle: saline
[7] = dose: 100.0 mg/kg/injection, schedule: Q01DX001 (ip), vehicle: carboxymethylcellulose (CMC)
[8] = dose: 200.0 mg/kg/injection, schedule: Q01DX001 (ip), vehicle: carboxymethylcellulose (CMC)
[9] = dose: 400.0 mg/kg/injection, schedule: Q01DX001 (ip), vehicle: carboxymethylcellulose (CMC)
[10] = dose: 100.0 mg/kg/injection, schedule: Q04DX003 (ip), vehicle: saline
[11] = dose: 200.0 mg/kg/injection, schedule: Q04DX003 (ip), vehicle: saline
[12] = dose: 400.0 mg/kg/injection, schedule: Q04DX003 (ip), vehicle: saline
[13] = dose: 100.0 mg/kg/injection, schedule: Q01DX009 (ip), vehicle: saline
[14] = dose: 200.0 mg/kg/injection, schedule: Q01DX009 (ip), vehicle: saline
[15] = dose: 400.0 mg/kg/injection, schedule: Q01DX009 (ip), vehicle: saline
[16] = dose: 50.0 mg/kg/injection, schedule: Q01DX009 (ip), vehicle: saline
[17] = dose: 400.0 mg/kg/injection, schedule: Q01DX001 (ip), vehicle: saline

Measured: T/C

CC(C)(C1c2ccccc2C(=O)c2ccccc21)[N+](=O)[O-]
inactive: [1] 101 % of control | dose: 100.0 mg/kg/injection, schedule: Q04DX003 (ip), vehicle: Klucel (hydroxypropylcellulose) (HPC) 98 % of control | [2] 94 % of control | dose: 200.0 mg/kg/injection, schedule: Q04DX003 (ip), vehicle: Klucel (hydroxypropylcellulose) (HPC) 101 % of control | [3] 99 % of control | dose: 400.0 mg/kg/injection, schedule: Q04DX003 (ip), vehicle: Klucel (hydroxypropylcellulose) (HPC) 101 % of control

NC(CCl)C(=O)O (stereo not drawn)
inactive: dose: 6.25 mg/kg/injection, schedule: Q01DX001 (ip), vehicle: saline 103 % of control | dose: 12.5 mg/kg/injection, schedule: Q01DX001 (ip), vehicle: saline 101 % of control | dose: 25.0 mg/kg/injection, schedule: Q01DX001 (ip), vehicle: saline 103 % of control | [4] 97 % of control | [5] 92 % of control | [6] 90 % of control

CC(=O)CCc1ccccc1
inactive: [7] 101 % of control | [8] 103 % of control | [9] 101 % of control

Nc1ncnc2c1nnn2CCCCC(N)C(=O)O (stereo not drawn)
inactive: [10] 111 % of control | [11] 106 % of control | [12] 95 % of control

CN(C)C(=S)N(C)C
inactive: dose: 50.0 mg/kg/injection, schedule: Q01DX001 (ip), vehicle: carboxymethylcellulose (CMC) 104 % of control | [7] 104 % of control | [13] 90 % of control | [10] 107 % of control | [8] 101 % of control | [14] 96 % of control | [11] 107 % of control | [9] 98 % of control | [15] 98 % of control | [12] 104 % of control

O=C1C(=C(C(F)(F)F)C(F)(F)F)C2CCC1C2 (stereo not drawn)
inactive: dose: 6.25 mg/kg/injection, schedule: Q01DX009 (ip), vehicle: saline with Tween-80 93 % of control | dose: 6.25 mg/kg/injection, schedule: Q04DX003 (ip), vehicle: saline with Tween-80 114 % of control | dose: 12.5 mg/kg/injection, schedule: Q01DX009 (ip), vehicle: saline with Tween-80 93 % of control | dose: 12.5 mg/kg/injection, schedule: Q04DX003 (ip), vehicle: saline with Tween-80 92 % of control | dose: 25.0 mg/kg/injection, schedule: Q04DX003 (ip), vehicle: saline with Tween-80 96 % of control

Cc1cnc2c(N)nn(-c3ccccc3)c2n1
inactive: dose: 100.0 mg/kg/injection, schedule: Q01DX009 (ip), vehicle: saline with Tween-80 93 % of control | dose: 100.0 mg/kg/injection, schedule: Q04DX003 (ip), vehicle: saline with Tween-80 95 % of control | dose: 200.0 mg/kg/injection, schedule: Q01DX009 (ip), vehicle: saline with Tween-80 101 % of control | dose: 200.0 mg/kg/injection, schedule: Q04DX003 (ip), vehicle: saline with Tween-80 97 % of control | dose: 400.0 mg/kg/injection, schedule: Q01DX009 (ip), vehicle: saline with Tween-80 98 % of control | dose: 400.0 mg/kg/injection, schedule: Q04DX003 (ip), vehicle: saline with Tween-80 94 % of control

C=CC[Se]c1ncnc2c1ncn2C1OC(CO)C(O)C1O (stereo not drawn)
inactive: dose: 12.5 mg/kg/injection, schedule: Q01DX005 (ip), vehicle: saline 100 % of control | dose: 25.0 mg/kg/injection, schedule: Q01DX005 (ip), vehicle: saline 110 % of control | dose: 50.0 mg/kg/injection, schedule: Q01DX005 (ip), vehicle: saline 104 % of control | [16] 90 % of control | [13] 88 % of control

CCN(CC)CCOC(=O)Nc1ccc(Cl)cc1
inactive: [1] 93 % of control | [10] 98 % of control | [2] 93 % of control | [11] 98 % of control | [3] 98 % of control

O=C(Nc1ccc(Cl)cc1)Nc1ccc([N+](=O)[O-])cc1[N+](=O)[O-]
inactive: dose: 100.0 mg/kg/injection, schedule: Q04DX002 (ip), vehicle: Klucel (hydroxypropylcellulose) (HPC) 111 % of control | dose: 200.0 mg/kg/injection, schedule: Q04DX002 (ip), vehicle: Klucel (hydroxypropylcellulose) (HPC) 108 % of control | dose: 400.0 mg/kg/injection, schedule: Q04DX002 (ip), vehicle: Klucel (hydroxypropylcellulose) (HPC) 108 % of control

CCSC1C(O)OC(CO)C(O)C1O (stereo not drawn)
inactive: [5] 95 % of control | [6] 106 % of control | [17] 104 % of control

NC(=S)N/N=C/c1cccc(/C=N/NC(N)=S)c1
inactive: [4] 98 % of control | [5] 93 % of control | [6] 93 % of control | [17] 93 % of control

CC(C)OP(=O)(OC=C(Cl)Cl)OC(C)C
inactive: dose: 75.0 mg/kg/injection, schedule: Q01DX001 (ip), vehicle: saline 93 % of control | dose: 150.0 mg/kg/injection, schedule: Q01DX001 (ip), vehicle: saline 91 % of control

CC(=O)CCC(C)(C)[N+](=O)[O-]
inactive: dose: 75.0 mg/kg/injection, schedule: Q01DX009 (ip), vehicle: acetone 97 % of control | dose: 150.0 mg/kg/injection, schedule: Q01DX009 (ip), vehicle: acetone 94 % of control | dose: 300.0 mg/kg/injection, schedule: Q01DX009 (ip), vehicle: acetone 95 % of control

CN1c2ccccc2C=C(C(=O)c2ccccc2)C1c1ccccc1 (stereo not drawn)
inactive: [4] 100 % of control | [5] 102 % of control | [6] 97 % of control

O=C(Sc1ccccc1)n1nc(Cl)c2ccc([N+](=O)[O-])cc21
inactive: [5] 94 % of control | [6] 94 % of control | [17] 90 % of control

COc1cc(C(N)=O)cc(OC)c1O
inactive: [13] 92 % of control | [10] 97 % of control | [14] 103 % of control | [11] 108 % of control | [15] 113 % of control | [12] 100 % of control

c1ccc(C2SCCCS2)cc1
inactive: [1] 96 % of control | [2] 97 % of control | [3] 94 % of control

CCO/C=C/C(=O)NC(=O)NC1CC(O)C(CO)C1 (stereo not drawn)
inactive: [16] 104 % of control | [13] 107 % of control | [14] 93 % of control

CN(C)c1ccc(C=C(Cl)Cl)cc1
inactive: dose: 50.0 mg/kg/injection, schedule: Q01DX005 (ip), vehicle: other 108 % of control | dose: 50.0 mg/kg/injection, schedule: Q01DX009 (ip), vehicle: other 96 % of control | dose: 100.0 mg/kg/injection, schedule: Q01DX005 (ip), vehicle: other 108 % of control | dose: 100.0 mg/kg/injection, schedule: Q01DX009 (ip), vehicle: other 107 % of control | dose: 200.0 mg/kg/injection, schedule: Q01DX005 (ip), vehicle: other 112 % of control | dose: 200.0 mg/kg/injection, schedule: Q01DX009 (ip), vehicle: other 100 % of control
